Five compounds from ChEMBL document CHEMBL5537115, “New broad-spectrum and potent antibacterial agents with dual-targeting mechanism: Promoting FtsZ polymerization and disrupting bacterial membranes” (Eur J Med Chem, 2024) can be followed below.

Holding throughout (format): functional
In one assay the test system is Bacillus pumilus. Description: Antibacterial activity against penicillin-susceptible Bacillus pumilus CMCC63202 assessed as bacterial growth inhibition incubated for 20 hrs by CLSI based broth microdilution method.
Assay [1] has as its system Enterococcus faecalis. Nature of the assay: Antibacterial activity against vancomycin-susceptible Enterococcus faecalis ATCC29212 assessed as bacterial growth inhibition incubated for 20 hrs by CLSI based broth microdilution method.
Assay [2] deals with Staphylococcus aureus. Description: Antibacterial activity against methicillin-resistant Staphylococcus aureus ATCC43300 assessed as bacterial growth inhibition incubated for 20 hrs by CLSI based broth microdilution method.
Assay [3] has as its system Enterococcus faecalis. Description: Antibacterial activity against vancomycin-resistant Enterococcus faecalis ATCC51299 assessed as bacterial growth inhibition incubated for 20 hrs by CLSI based broth microdilution method.
For assay [4], the system named is Enterococcus faecium. Description: Antibacterial activity against vancomycin-resistant Enterococcus faecium ATCC51559 assessed as bacterial growth inhibition incubated for 20 hrs by CLSI based broth microdilution method.
In assay [5] the test system is Streptococcus pyogenes. Nature of the assay: Antibacterial activity against erythromycin-susceptible Streptococcus pyogenes 1 assessed as bacterial growth inhibition incubated for 20 hrs by CLSI based broth microdilution method.
In the next assay the test system is Klebsiella pneumoniae. Description: Antibacterial activity against Klebsiella pneumoniae ATCC BAA-1902 assessed as bacterial growth inhibition incubated for 20 hrs by CLSI based broth microdilution method.
The subject of assay [6] is Escherichia coli. Description: Antibacterial activity against wild-type Escherichia coli BW25113 assessed as bacterial growth inhibition incubated for 20 hrs by CLSI based broth microdilution method.
Assay [7] relates to Streptococcus pyogenes. Description: Antibacterial activity against erythromycin-resistant Streptococcus pyogenes 2 clinical isolate assessed as bacterial growth inhibition incubated for 20 hrs by CLSI based broth microdilution method.
Assay [8] has as its system Staphylococcus epidermidis. Nature of the assay: Antibacterial activity against penicillin-resistant Staphylococcus epidermidis clinical isolate assessed as bacterial growth inhibition incubated for 20 hrs by CLSI based broth microdilution method.
In assay [9] the test system is Staphylococcus aureus. Description: Antibacterial activity against penicillin-resistant Staphylococcus aureus ATCC31007 assessed as bacterial growth inhibition incubated for 20 hrs by CLSI based broth microdilution method.
The subject of assay [10] is Escherichia coli. Nature of the assay: Antibacterial activity against penicillin-susceptible Escherichia coli ATCC25922 assessed as bacterial growth inhibition incubated for 20 hrs by CLSI based broth microdilution method.
For assay [11], the system named is Staphylococcus aureus. Nature of the assay: Antibacterial activity against Staphylococcus aureus clinical isolate assessed as bacterial growth inhibition incubated for 20 hrs by CLSI based broth microdilution method.
The next assay has as its system Acinetobacter baumannii. Nature of the assay: Antibacterial activity against Acinetobacter baumannii ATCC19606 assessed as bacterial growth inhibition incubated for 20 hrs by CLSI based broth microdilution method.
Assay [12] relates to Enterococcus faecium. Nature of the assay: Antibacterial activity against vancomycin-susceptible Enterococcus faecium ATCC19434 assessed as bacterial growth inhibition incubated for 20 hrs by CLSI based broth microdilution method.
The test system of a further assay is Bacillus subtilis. Nature of the assay: Antibacterial activity against penicillin-susceptible Bacillus subtilis ATCC9372 assessed as bacterial growth inhibition incubated for 20 hrs by CLSI based broth microdilution method.
Assay [13] deals with Staphylococcus aureus. Nature of the assay: Antibacterial activity against erythromycin-susceptible Staphylococcus aureus ATCC25923 assessed as bacterial growth inhibition incubated for 20 hrs by CLSI based broth microdilution method.

Take `CC(C)c1ccc(/C=C/c2cc(-c3ccc4ccccc4c3)[n+](C)cc2-c2ccccc2)cc1.[I-]`: the MIC in the assay on Bacillus pumilus is 0.5 µg/mL; in the assay with Enterococcus faecalis [1], 2 µg/mL; with Staphylococcus aureus [2], 0.5 µg/mL; in the assay with Enterococcus faecalis [3], 4 µg/mL; in the assay with Enterococcus faecium [4] it was 2 µg/mL; with Streptococcus pyogenes [5] it was 0.5 µg/mL. Also, the MIC with Klebsiella pneumoniae is 16 µg/mL; in the assay on Escherichia coli [6] it was 8 µg/mL; in the assay on Streptococcus pyogenes [7] it was 4 µg/mL; in assay [8], 2 µg/mL; with Staphylococcus aureus [9] it was 2 µg/mL; in the assay on Escherichia coli [10], 64 µg/mL. Further, the MIC in the assay on Staphylococcus aureus [11] was found to be 0.5 µg/mL; in the assay on Acinetobacter baumannii it was 2 µg/mL; with Enterococcus faecium [12], 2 µg/mL; in the assay with Bacillus subtilis, 0.5 µg/mL; in the assay on Staphylococcus aureus [13] it was 0.5 µg/mL.

`CCCCCOc1ccc(/C=C/c2cc(-c3ccccc3)[n+](C)cc2-c2ccccc2)cc1.[I-]`: the MIC came to 0.5 µg/mL in the assay with Bacillus pumilus; 2 µg/mL in the assay on Enterococcus faecalis [1]; 1 µg/mL in the assay on Staphylococcus aureus [2]; 1 µg/mL with Enterococcus faecalis [3]; 1 µg/mL in the assay on Enterococcus faecium [4]; 2 µg/mL in the assay on Streptococcus pyogenes [5]. For the same compound, the MIC was found to be 4 µg/mL with Klebsiella pneumoniae; 2 µg/mL in the assay on Escherichia coli [6]; 2 µg/mL in the assay with Streptococcus pyogenes [7]; 1 µg/mL in [8]; 1 µg/mL in the assay with Staphylococcus aureus [9]; 4 µg/mL in the assay with Escherichia coli [10]. In addition, the MIC in the assay on Staphylococcus aureus [11] worked out at 0.5 µg/mL; with Acinetobacter baumannii, 2 µg/mL; in the assay on Enterococcus faecium [12], 0.5 µg/mL; in the assay on Bacillus subtilis it was 0.5 µg/mL; with Staphylococcus aureus [13], 0.5 µg/mL.

As for `C[n+]1cc(-c2ccccc2)cc(/C=C/c2ccc(Cl)cc2)c1-c1ccccc1.[I-]`, the MIC with Bacillus pumilus is 8 µg/mL; with Enterococcus faecalis [1], 16 µg/mL; in the assay on Staphylococcus aureus [2] it was 4 µg/mL; with Enterococcus faecalis [3], 16 µg/mL; in the assay with Enterococcus faecium [4] it was 16 µg/mL; with Streptococcus pyogenes [5], 4 µg/mL. The MIC in the assay with Klebsiella pneumoniae is over 64 µg/mL; in the assay on Escherichia coli [6], over 64 µg/mL; with Streptococcus pyogenes [7], 4 µg/mL; in assay [8], 8 µg/mL; in the assay with Staphylococcus aureus [9] it was 16 µg/mL; with Escherichia coli [10], 64 µg/mL. Further, the MIC is 2 µg/mL in the assay on Staphylococcus aureus [11]; 8 µg/mL in the assay on Acinetobacter baumannii; 16 µg/mL in the assay on Enterococcus faecium [12]; 4 µg/mL with Bacillus subtilis; 2 µg/mL in the assay with Staphylococcus aureus [13].

Consider `CCc1ccc(/C=C/c2cc(-c3ccccc3)c[n+](C)c2-c2ccccc2)cc1.[I-]`, for which the MIC was found to be 8 µg/mL in the assay on Bacillus pumilus; 16 µg/mL in the assay with Enterococcus faecalis [1]; 8 µg/mL with Staphylococcus aureus [2]; 16 µg/mL in the assay on Enterococcus faecalis [3]; 16 µg/mL in the assay on Enterococcus faecium [4]; 4 µg/mL in the assay on Streptococcus pyogenes [5]. Moreover, the MIC in the assay with Klebsiella pneumoniae is 16 µg/mL; with Escherichia coli [6] it was over 64 µg/mL; in the assay on Streptococcus pyogenes [7], 8 µg/mL; in [8], 16 µg/mL; with Staphylococcus aureus [9] it was 4 µg/mL; with Escherichia coli [10], over 64 µg/mL. Besides, the MIC in the assay with Staphylococcus aureus [11] came to 2 µg/mL; in the assay with Acinetobacter baumannii, 32 µg/mL; in the assay with Enterococcus faecium [12] it was 16 µg/mL; in the assay on Bacillus subtilis, 4 µg/mL; with Staphylococcus aureus [13], 1 µg/mL.

Turning to `C[n+]1cc(-c2ccccc2)c(/C=C/c2ccc(Cl)c(Cl)c2)cc1-c1ccc(C(C)(C)C)cc1.[I-]`, the MIC in the assay on Bacillus pumilus came to 2 µg/mL; in the assay with Enterococcus faecalis [1] it was 2 µg/mL; in the assay on Staphylococcus aureus [2], 1 µg/mL; in the assay with Enterococcus faecalis [3], 2 µg/mL; with Enterococcus faecium [4] it was 1 µg/mL; in the assay on Streptococcus pyogenes [5], 8 µg/mL. Further, the MIC in the assay on Klebsiella pneumoniae is over 64 µg/mL; in the assay with Escherichia coli [6], 8 µg/mL; in the assay with Streptococcus pyogenes [7], 4 µg/mL; in assay [8], 2 µg/mL; in the assay on Staphylococcus aureus [9], 2 µg/mL; in the assay on Escherichia coli [10] it was over 64 µg/mL. Also, the MIC in the assay with Staphylococcus aureus [11] is 1 µg/mL; in the assay with Acinetobacter baumannii, 4 µg/mL; in the assay with Enterococcus faecium [12] it was 1 µg/mL; with Bacillus subtilis it was 2 µg/mL; with Staphylococcus aureus [13] it was 2 µg/mL.
